Data reported in article PMC9879382 (Prostaglandins & other lipid mediators, 2022).
pIC50: −log10 of the molar value. Where two headings read alike, the source gives them in different places.

Key:
human FAAH = target: T1, human FAAH (Homo sapiens, UniProt O00519); experiment: FAAH inhibition assay; type: biochemical; settings: OMP 50 μM, pH 8, 37 °C
T1 sequence (O00519 1-579): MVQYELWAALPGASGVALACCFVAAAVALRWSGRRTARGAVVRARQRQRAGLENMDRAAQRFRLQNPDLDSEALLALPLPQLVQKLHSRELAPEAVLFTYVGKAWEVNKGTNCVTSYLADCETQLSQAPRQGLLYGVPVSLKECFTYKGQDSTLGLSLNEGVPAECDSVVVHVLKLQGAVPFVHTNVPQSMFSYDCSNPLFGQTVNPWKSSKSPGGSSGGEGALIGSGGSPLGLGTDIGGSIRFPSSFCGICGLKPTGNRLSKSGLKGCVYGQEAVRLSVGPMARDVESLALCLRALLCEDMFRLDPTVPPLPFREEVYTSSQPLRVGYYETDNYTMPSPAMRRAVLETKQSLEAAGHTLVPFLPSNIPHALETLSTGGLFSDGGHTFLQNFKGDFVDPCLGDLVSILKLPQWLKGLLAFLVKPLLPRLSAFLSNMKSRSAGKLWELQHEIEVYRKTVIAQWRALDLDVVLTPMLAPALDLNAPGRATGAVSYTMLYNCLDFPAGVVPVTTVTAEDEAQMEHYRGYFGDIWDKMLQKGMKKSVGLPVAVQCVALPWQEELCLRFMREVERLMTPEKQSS

human sEH = target: T2, human sEH (Homo sapiens, UniProt P34913); experiment: sEH inhibition assay; type: biochemical; settings: CMNPC 5 μM, pH 7.4, 30 °C
T2 sequence (P34913 1-555): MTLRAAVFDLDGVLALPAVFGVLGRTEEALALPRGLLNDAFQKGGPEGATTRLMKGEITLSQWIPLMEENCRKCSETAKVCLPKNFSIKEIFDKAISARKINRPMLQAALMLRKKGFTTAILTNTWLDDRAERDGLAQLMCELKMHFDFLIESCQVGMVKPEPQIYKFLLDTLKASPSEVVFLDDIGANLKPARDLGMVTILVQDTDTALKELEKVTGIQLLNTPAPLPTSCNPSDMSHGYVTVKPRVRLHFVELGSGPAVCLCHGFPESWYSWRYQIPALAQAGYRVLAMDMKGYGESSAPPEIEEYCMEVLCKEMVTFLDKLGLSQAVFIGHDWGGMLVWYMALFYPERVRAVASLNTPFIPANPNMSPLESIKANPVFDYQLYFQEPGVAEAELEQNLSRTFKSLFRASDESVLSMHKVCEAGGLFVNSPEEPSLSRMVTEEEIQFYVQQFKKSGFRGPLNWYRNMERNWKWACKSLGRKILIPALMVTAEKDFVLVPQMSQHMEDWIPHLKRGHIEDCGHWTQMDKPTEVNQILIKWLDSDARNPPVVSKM

mouse sEH = target: T3, mouse sEH (Mus musculus, UniProt P34914); experiment: sEH inhibition assay; type: biochemical
T3 sequence (P34914 1-554): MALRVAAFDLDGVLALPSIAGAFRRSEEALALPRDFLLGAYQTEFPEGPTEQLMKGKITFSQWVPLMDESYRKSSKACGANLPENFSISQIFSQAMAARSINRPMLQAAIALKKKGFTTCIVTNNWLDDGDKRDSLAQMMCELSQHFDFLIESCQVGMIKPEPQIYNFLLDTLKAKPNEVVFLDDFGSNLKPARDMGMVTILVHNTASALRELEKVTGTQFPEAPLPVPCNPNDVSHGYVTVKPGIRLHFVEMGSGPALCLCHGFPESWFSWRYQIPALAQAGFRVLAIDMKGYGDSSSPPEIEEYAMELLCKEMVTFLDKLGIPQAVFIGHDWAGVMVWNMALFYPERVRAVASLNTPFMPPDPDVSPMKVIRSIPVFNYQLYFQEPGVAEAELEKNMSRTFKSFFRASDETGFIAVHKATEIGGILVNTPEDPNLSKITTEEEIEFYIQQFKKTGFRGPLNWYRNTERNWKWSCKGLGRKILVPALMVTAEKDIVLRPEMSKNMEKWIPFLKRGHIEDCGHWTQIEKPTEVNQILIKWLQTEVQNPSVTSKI

rat sEH = target: T4, rat sEH (Rattus norvegicus, UniProt P80299); experiment: sEH inhibition assay; type: biochemical
T4 sequence (P80299 1-554): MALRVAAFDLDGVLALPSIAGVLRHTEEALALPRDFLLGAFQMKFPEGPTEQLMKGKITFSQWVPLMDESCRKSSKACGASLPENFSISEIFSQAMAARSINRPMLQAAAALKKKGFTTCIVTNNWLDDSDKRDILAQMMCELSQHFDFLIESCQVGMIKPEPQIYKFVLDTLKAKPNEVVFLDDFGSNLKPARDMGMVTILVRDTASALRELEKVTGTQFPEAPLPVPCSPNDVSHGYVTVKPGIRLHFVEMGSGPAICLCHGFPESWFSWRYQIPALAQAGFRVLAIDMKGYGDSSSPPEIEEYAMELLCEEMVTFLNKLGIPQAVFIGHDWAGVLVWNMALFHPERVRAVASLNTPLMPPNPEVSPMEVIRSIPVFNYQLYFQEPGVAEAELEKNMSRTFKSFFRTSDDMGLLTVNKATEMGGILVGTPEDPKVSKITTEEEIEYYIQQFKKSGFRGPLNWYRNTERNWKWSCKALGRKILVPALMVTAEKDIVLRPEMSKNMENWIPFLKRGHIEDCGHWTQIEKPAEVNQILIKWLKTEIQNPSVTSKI

[1] = Microsomal liver stability assay, human; type: in vitro ADME; settings: pH 7.4
[2] = Microsomal liver stability assay, mouse; type: in vitro ADME; settings: pH 7.4
[3] = Microsomal liver stability assay, rat; type: in vitro ADME; settings: both, pH 7.4
[4] = Human FAAH IC50, human recombinant FAAH
[5] = Human sEH IC50, human recombinant sEH
[6] = read-out: Rat sEH IC50, rat sEH, CMNPC 5 μM, pH 7.4, 30 °C

Q: With `O=C(Nc1ccc(-c2nc3ccccc3s2)cc1)C1CCN(S(=O)(=O)c2ccccc2C(F)(F)F)CC1` [Compound 7a, N-(4-(benzo[d]thiazol-2-yl)phenyl)-1-((2-(trifluoromethyl)phenyl)sulfonyl)piperidine-4-carboxamide] as the compound, how does the pIC50 (human FAAH; [4]) read?
A: Its pIC50 is 8.01.

Q: And the pIC50 (human sEH; [5])?
A: Its pIC50 is 8.51.

Q: And the pIC50 (mouse sEH)?
A: The pIC50 was 5.14.

Q: And the pIC50 (rat sEH)?
A: The pIC50 was 8.24.

Q: What about the half-life at 1 μM ([1]; human liver microsomes) of the same compound?
A: The half-life at 1 μM was 24 min.

Q: And the microsomal CLint at 1 μM ([1]; human liver microsomes)?
A: Its microsomal CLint at 1 μM is 57 µL/min/mg.

Q: And the half-life at 1 μM ([2]; mouse liver microsomes)?
A: Its half-life at 1 μM is 15.8 min.

Q: What about the microsomal CLint at 1 μM ([2]; mouse liver microsomes) of the same compound?
A: Its microsomal CLint at 1 μM is 87 µL/min/mg.

Q: And the half-life at 1 μM ([3]; rat liver microsomes)?
A: The half-life at 1 μM was 14.7 min.

Q: What about the microsomal CLint at 1 μM ([3]; rat liver microsomes) of the same compound?
A: Its microsomal CLint at 1 μM is 94 µL/min/mg.

Q: With `N#Cc1ccccc1S(=O)(=O)N1CCC(C(=O)Nc2ccc(-c3nc4ccccc4s3)cc2)CC1` [Compound 7b, N-(4-(benzo[d]thiazol-2-yl)phenyl)-1-((2-cyanophenyl)sulfonyl)piperidine-4-carboxamide] as the compound, how does the pIC50 (human FAAH; [4]) read?
A: The pIC50 was 6.54.

Q: What about the pIC50 (human sEH; [5]) of the same compound?
A: Its pIC50 is 7.71.

Q: What about the pIC50 (mouse sEH) of the same compound?
A: Its pIC50 is 6.24.

Q: And the pIC50 (rat sEH)?
A: The pIC50 was 6.73.

Q: What does the source list for `O=C(Nc1ccc(-c2nc3ccccc3s2)cc1)C1CCN(S(=O)(=O)c2cccc(C(F)(F)F)c2)CC1` [Compound 7c, N-(4-(benzo[d]thiazol-2-yl)phenyl)-1-((3-(trifluoromethyl)phenyl)sulfonyl)piperidine-4-carboxamide]?
A: pIC50 (human FAAH; [4]): 7.65; pIC50 (human sEH; [5]): 7.05; pIC50 (mouse sEH): 5.37; pIC50 (rat sEH): 6.91

Q: With `O=C(Nc1ccc(-c2nc3ccccc3s2)cc1)C1CCN(S(=O)(=O)c2ccc(C(F)(F)F)cc2)CC1` [Compound 7d, N-(4-(benzo[d]thiazol-2-yl)phenyl)-1-((4-(trifluoromethyl)phenyl)sulfonyl)piperidine-4-carboxamide] as the compound, how does the pIC50 (human FAAH; [4]) read?
A: Its pIC50 is 7.32.

Q: What about the pIC50 (human sEH; [5]) of the same compound?
A: The pIC50 was 7.29.

Q: What about the pIC50 (mouse sEH) of the same compound?
A: Its pIC50 is 5.04.

Q: What about the pIC50 (rat sEH) of the same compound?
A: The pIC50 was 7.54.

Q: With `O=C(Nc1ccc(-c2nc3ccccc3s2)cc1)C1CCN(S(=O)(=O)c2ccc([N+](=O)[O-])cc2)CC1` [Compound 7e, N-(4-(benzo[d]thiazol-2-yl)phenyl)-1-((4-nitrophenyl)sulfonyl)piperidine-4-carboxamide] as the compound, how does the pIC50 (mouse sEH) read?
A: The pIC50 was under 5.00.

Q: And the pIC50 (rat sEH)?
A: The pIC50 was 5.35.

Q: With `O=C(Nc1ccc(-c2nc3ccccc3s2)cc1)C1CCN(S(=O)(=O)c2ccc(F)cc2Cl)CC1` [Compound 7f, N-(4-(benzo[d]thiazol-2-yl)phenyl)-1-((2-chloro-4-fluorophenyl)sulfonyl)piperidine-4-carboxamide] as the compound, how does the pIC50 (human FAAH; [4]) read?
A: The pIC50 was 7.72.

Q: What about the pIC50 (human sEH; [5]) of the same compound?
A: Its pIC50 is 7.77.

Q: And the pIC50 (mouse sEH)?
A: The pIC50 was 6.57.

Q: What about the pIC50 (rat sEH) of the same compound?
A: Its pIC50 is 6.94.

Q: With `O=C(Nc1ccc(-c2nc3ccccc3s2)cc1)C1CCN(S(=O)(=O)c2ccc(C(F)(F)F)cc2Cl)CC1` [Compound 7g, N-(4-(benzo[d]thiazol-2-yl)phenyl)-1-((2-chloro-4-(trifluoromethyl)phenyl)sulfonyl) piperidine-4-carboxamide] as the compound, how does the pIC50 (human FAAH; read-out: Human FAAH IC50, human recombinant FAAH) read?
A: Its pIC50 is 7.58.

Q: What about the pIC50 (human sEH; read-out: Human sEH IC50, human recombinant sEH) of the same compound?
A: The pIC50 was 6.36.

Q: And the pIC50 (mouse sEH; read-out: Mouse sEH IC50, mouse sEH, CMNPC 5 μM, pH 7.4, 30 °C)?
A: Its pIC50 is 5.04.

Q: What about the pIC50 (rat sEH; [6]) of the same compound?
A: The pIC50 was 6.07.

Q: With `O=C(Nc1ccc(-c2nc3ccccc3s2)cc1)C1CCN(S(=O)(=O)c2ccc(F)cc2Br)CC1` [Compound 7h, N-(4-(benzo[d]thiazol-2-yl)phenyl)-1-((2-bromo-4-fluorophenyl)sulfonyl)piperidine-4-carboxamide] as the compound, how does the pIC50 (human FAAH; [4]) read?
A: The pIC50 was 7.54.

Q: What about the pIC50 (human sEH; [5]) of the same compound?
A: The pIC50 was 8.09.

Q: What about the pIC50 (mouse sEH) of the same compound?
A: Its pIC50 is 6.40.

Q: And the pIC50 (rat sEH)?
A: Its pIC50 is 7.93.

Q: With `O=C(Nc1ccc(-c2nc3ccccc3s2)cc1)C1CCN(S(=O)(=O)c2cc(C(F)(F)F)cc(C(F)(F)F)c2)CC1` [Compound 7j, N-(4-(benzo[d]thiazol-2-yl)phenyl)-1-((3,5-bis(trifluoromethyl)phenyl)sulfonyl)piperidine-4-carboxamide] as the compound, how does the pIC50 (human FAAH; [4]) read?
A: The pIC50 was 7.38.

Q: What about the pIC50 (human sEH; [5]) of the same compound?
A: Its pIC50 is 5.32.

Q: What about the pIC50 (mouse sEH) of the same compound?
A: The pIC50 was under 5.00.

Q: And the pIC50 (rat sEH)?
A: Its pIC50 is 5.54.

Q: With `O=C(Nc1ccc(-c2nc3ccccc3s2)cc1)C1CCN(S(=O)(=O)c2c(Cl)cc(Br)cc2Cl)CC1` [Compound 7k, N-(4-(benzo[d]thiazol-2-yl)phenyl)-1-((4-bromo-2,6-dichlorophenyl)sulfonyl)piperidine-4-carboxamide] as the compound, how does the pIC50 (human FAAH; [4]) read?
A: The pIC50 was 7.05.

Q: What about the pIC50 (human sEH; [5]) of the same compound?
A: The pIC50 was 7.39.

Q: And the pIC50 (mouse sEH)?
A: Its pIC50 is 5.75.

Q: What about the pIC50 (rat sEH) of the same compound?
A: Its pIC50 is 7.37.

Q: Which microsomal CLint at 1 μM ([1]; microsomes) does the source give for `C[C@]12CC[C@H]3[C@@H](CCC4=CC(=O)CC[C@@]43C)[C@@H]1CC[C@@H]2O` [Testosterone (control), testosterone, reference compound] here?
A: Its microsomal CLint at 1 μM is 61 µL/min/mg.

Q: And the microsomal CLint at 1 μM ([2]; microsomes)?
A: The microsomal CLint at 1 μM was 280 µL/min/mg.

Q: And the half-life at 1 μM ([3]; microsomes)?
A: Its half-life at 1 μM is 1.1 min.

Q: And the microsomal CLint at 1 μM ([3]; microsomes)?
A: The microsomal CLint at 1 μM was 1250 µL/min/mg.

Q: With `O=C(Nc1ccc(OC(F)(F)F)cc1)NC1CCC(Oc2ccc(C(=O)O)cc2)CC1` (stereo not shown) [t-TUCB, reference compound] as the compound, how does the pIC50 (rat sEH; [6]) read?
A: The pIC50 was 8.03.
